Reference: ChEMBL document CHEMBL5113513, “Selective Inhibitors of Medium-Size S1' Pocket Matrix Metalloproteinases: A Stepping Stone of Future Drug Discovery” (J Med Chem, 2022)
≈ marks a conversion by molar mass, not a printed value. Each block holds one molecule with its values, some of them ahead of it.

Columns and labels:
[1] = Inhibition of brain damage in C57BL/6J mouse traumatic brain injury model at 25 mg/kg, ip for 7 days by cresyl violet-staining based histopathological analysis; type: functional; conditions: 168 h, time 7 day
[2] = target: T1, Matrix metalloproteinase-9 (Homo sapiens, UniProt P14780); test: Inhibition of human MMP-9 expressed in Escherichia coli BL21(DE3) using Mca-Pro-Leu-Gly-Leu-Dpa-Ala-Arg-NH2 as substrate preincubated for 30 mins followed by susbstrate addition by photon-counter spectrophotometer analysis
[3] = target: T2, Matrix metalloproteinase-14 (Homo sapiens, UniProt P50281); test: Inhibition of human MMP-14 expressed in Escherichia coli BL21(DE3) using Mca-Pro-Leu-Gly-Leu-Dpa-Ala-Arg-NH2 as substrate preincubated for 30 mins followed by susbstrate addition by photon-counter spectrophotometer analysis
Stromelysin-1 [4] = target: T3, Stromelysin-1 (Homo sapiens, UniProt P08254); test: Inhibition of human MMP-3 expressed in Escherichia coli BL21(DE3) using Mca-Pro-Leu-Gly-Leu-Dpa-Ala-Arg-NH2 as substrate preincubated for 30 mins followed by susbstrate addition by photon-counter spectrophotometer analysis
[5] = target: T4, 72 kDa type IV collagenase (Homo sapiens, UniProt P08253); test: Inhibition of human MMP-2 expressed in Escherichia coli BL21(DE3) using Mca-Pro-Leu-Gly-Leu-Dpa-Ala-Arg-NH2 as substrate preincubated for 30 mins followed by susbstrate addition by photon-counter spectrophotometer analysis
Interstitial collagenase [6] = target: T5, Interstitial collagenase (Homo sapiens, UniProt P03956); test: Inhibition of human MMP-1 expressed in Escherichia coli BL21(DE3) using Mca-Pro-Leu-Gly-Leu-Dpa-Ala-Arg-NH2 as substrate preincubated for 30 mins followed by susbstrate addition by photon-counter spectrophotometer analysis
T5 sequence (P03956 whole entry): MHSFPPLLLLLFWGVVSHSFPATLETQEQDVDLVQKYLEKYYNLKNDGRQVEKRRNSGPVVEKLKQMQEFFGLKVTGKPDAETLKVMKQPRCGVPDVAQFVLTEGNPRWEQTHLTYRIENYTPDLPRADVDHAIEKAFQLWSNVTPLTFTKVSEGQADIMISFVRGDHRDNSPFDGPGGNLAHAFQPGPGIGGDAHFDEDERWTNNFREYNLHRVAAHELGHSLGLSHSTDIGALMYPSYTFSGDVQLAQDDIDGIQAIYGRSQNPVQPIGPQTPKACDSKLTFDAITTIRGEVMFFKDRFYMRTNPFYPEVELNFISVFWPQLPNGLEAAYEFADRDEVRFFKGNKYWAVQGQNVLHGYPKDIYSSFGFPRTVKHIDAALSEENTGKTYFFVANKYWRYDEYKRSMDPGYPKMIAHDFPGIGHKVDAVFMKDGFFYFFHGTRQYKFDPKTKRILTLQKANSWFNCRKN

Neutrophil collagenase [7] = target: T6, Neutrophil collagenase (Homo sapiens, UniProt P22894); test: Inhibition of human MMP-8 expressed in Escherichia coli BL21(DE3) using Mca-Pro-Leu-Gly-Leu-Dpa-Ala-Arg-NH2 as substrate preincubated for 30 mins followed by susbstrate addition by photon-counter spectrophotometer analysis
[8] = target: T7, Macrophage metalloelastase (Homo sapiens, UniProt P39900); test: Inhibition of human MMP-12 expressed in Escherichia coli BL21(DE3) using Mca-Pro-Leu-Gly-Leu-Dpa-Ala-Arg-NH2 as substrate preincubated for 30 mins followed by susbstrate addition by photon-counter spectrophotometer analysis
Stromelysin-2 [9] = target: T8, Stromelysin-2 (Homo sapiens, UniProt P09238); test: Inhibition of human MMP-10 expressed in Escherichia coli BL21(DE3) using Mca-Pro-Leu-Gly-Leu-Dpa-Ala-Arg-NH2 as substrate preincubated for 30 mins followed by susbstrate addition by photon-counter spectrophotometer analysis
Collagenase 3 [10] = target: T9, Collagenase 3 (Homo sapiens, UniProt P45452); test: Inhibition of human MMP-13 expressed in Escherichia coli BL21(DE3) using Mca-Pro-Leu-Gly-Leu-Dpa-Ala-Arg-NH2 as substrate preincubated for 30 mins followed by susbstrate addition by photon-counter spectrophotometer analysis
Matrilysin [11] = target: T10, Matrilysin (Homo sapiens, UniProt P09237); test: Inhibition of human MMP-7 expressed in Escherichia coli BL21(DE3) using Mca-Pro-Leu-Gly-Leu-Dpa-Ala-Arg-NH2 as substrate preincubated for 30 mins followed by susbstrate addition by photon-counter spectrophotometer analysis
T10 sequence (P09237 whole entry): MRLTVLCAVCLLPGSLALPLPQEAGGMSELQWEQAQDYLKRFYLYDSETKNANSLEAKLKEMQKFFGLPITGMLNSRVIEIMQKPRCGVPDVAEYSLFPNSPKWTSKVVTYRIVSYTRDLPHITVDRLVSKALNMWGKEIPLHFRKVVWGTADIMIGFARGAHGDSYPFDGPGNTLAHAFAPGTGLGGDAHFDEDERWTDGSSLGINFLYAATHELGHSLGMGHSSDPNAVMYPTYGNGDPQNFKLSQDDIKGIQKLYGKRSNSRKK

Stromelysin-1 [12] = target: T3, Stromelysin-1; test: Inhibition of recombinant human MMP-3 using peptide substrate by ELISA
[13] = target: T4, 72 kDa type IV collagenase; test: Inhibition of recombinant human MMP-2 using peptide substrate by ELISA
Mus musculus [14] = test: Antitumor activity against SCID mouse with human tumor cell orthotopic implantation assessed as reduction in tumor growth at 50 mg/kg, ip for 6 weeks; type: functional; design: scale not given: the % may be the effect or the level left
[15] = Half life in Sprague-Dawley rats at 150 mg/kg, po; type: ADME, organism-based; conditions: rat, in vivo
Neutrophil collagenase [16] = target: T6, Neutrophil collagenase; test: Inhibition of recombinant human MMP-8 using peptide substrate by ELISA
[17] = Inhibition of recombinant human TACE using peptide substrate by ELISA
B16-F10 [18] = test: Inhibition of cell invasion in mouse B16-F10 cells at 100 uM by Matrigel invasion assay; type: functional
[19] = Half life in Sprague-Dawley rats at 150 mg/kg, ip; type: ADME, organism-based; conditions: rat, in vivo
Collagenase 3 [20] = target: T9, Collagenase 3; test: Inhibition of recombinant human MMP-13 using peptide substrate by ELISA
[21] = target: T1, Matrix metalloproteinase-9; test: Inhibition of recombinant human MMP-9 using peptide substrate by ELISA
Mus musculus [22] = test: Antimetastatic activity in SCID mouse with human tumor cell orthotopic implantation assessed as reduction in tumor metastasis at 50 mg/kg, ip for 6 weeks; type: functional; design: scale not given: the % may be the effect or the level left
B16-F10 [23] = test: Antimetastatic activity in mouse B16-F10 xenografted C57BL mouse melanoma model assessed as reduction in metastasis loci at 12.5 to 50 mg/kg, ip; type: functional; design: scale not given: the % may be the effect or the level left; conditions: dose 12.5-50 mg/kg
[24] = Half life in Sprague-Dawley rats at 50 mg/kg, iv; type: ADME, organism-based; conditions: rat, in vivo
[25] = target: T7, Macrophage metalloelastase; test: Inhibition of recombinant human MMP-12 using peptide substrate by ELISA
Interstitial collagenase [26] = target: T5, Interstitial collagenase; test: Inhibition of recombinant human MMP-1 using peptide substrate by ELISA
[27] = Half life in Sprague-Dawley rat at 33 mg/kg, po; type: ADME, organism-based; conditions: in vivo
[28] = AUC in Sprague-Dawley rats at 33 mg/kg, sc; type: ADME, organism-based; design: dose 33 mg/kg, route sc; conditions: rat, in vivo
[29] = AUC in Sprague-Dawley rats at 33 mg/kg, po; type: ADME, organism-based; design: dose 33 mg/kg, route po; conditions: rat, in vivo
[30] = Clearance in Sprague-Dawley rats at 33 mg/kg, sc; type: ADME, organism-based; conditions: rat, in vivo
[31] = Half life in Sprague-Dawley rats at 33 mg/kg, sc; type: ADME, organism-based; conditions: rat, in vivo
[32] = target: T4, 72 kDa type IV collagenase; test: Inhibition of MMP-2 (unknown origin) catalytic activity using Ac-PLG-[2-mercapto-4-methylpentanoyl]-LG-OC2H5 as substrate and measured upto 30 mins by microplate reader analysis
Stromelysin-2 [33] = target: T8, Stromelysin-2; test: Inhibition of MMP-10 (unknown origin)
[34] = target: T1, Matrix metalloproteinase-9; test: Inhibition of MMP-9 (unknown origin) catalytic activity using Ac-PLG-[2-mercapto-4-methylpentanoyl]-LG-OC2H5 as substrate and measured upto 30 mins by microplate reader analysis
[35] = target: T2, Matrix metalloproteinase-14; test: Inhibition of MMP-14 (unknown origin)
Neutrophil collagenase [36] = target: T6, Neutrophil collagenase; test: Inhibition of MMP-8 (unknown origin)
[37] = Aqueous solubility of compound by UV spectroscopy; type: physicochemical
[38] = target: T7, Macrophage metalloelastase; test: Inhibition of MMP-12 (unknown origin)
Collagenase 3 [39] = target: T9, Collagenase 3
Description: Inhibition of MMP-13 (unknown origin)

Matrilysin [40] = target: T10, Matrilysin; test: Inhibition of MMP-7 (unknown origin)
HT-1080 = test: Inhibition of cell invasion in human HT-1080 for 22 hrs by CyQuantGR dye based fluorometric analysis; type: functional
Stromelysin-1 [41] = target: T3, Stromelysin-1; test: Inhibition of MMP-3 (unknown origin)
Interstitial collagenase [42] = target: T5, Interstitial collagenase; test: Inhibition of MMP-1 (unknown origin)
[43] = target: T7, Macrophage metalloelastase; test: Inhibition of recombinant human MMP-12 by ELISA

T6 sequence (P22894 whole entry): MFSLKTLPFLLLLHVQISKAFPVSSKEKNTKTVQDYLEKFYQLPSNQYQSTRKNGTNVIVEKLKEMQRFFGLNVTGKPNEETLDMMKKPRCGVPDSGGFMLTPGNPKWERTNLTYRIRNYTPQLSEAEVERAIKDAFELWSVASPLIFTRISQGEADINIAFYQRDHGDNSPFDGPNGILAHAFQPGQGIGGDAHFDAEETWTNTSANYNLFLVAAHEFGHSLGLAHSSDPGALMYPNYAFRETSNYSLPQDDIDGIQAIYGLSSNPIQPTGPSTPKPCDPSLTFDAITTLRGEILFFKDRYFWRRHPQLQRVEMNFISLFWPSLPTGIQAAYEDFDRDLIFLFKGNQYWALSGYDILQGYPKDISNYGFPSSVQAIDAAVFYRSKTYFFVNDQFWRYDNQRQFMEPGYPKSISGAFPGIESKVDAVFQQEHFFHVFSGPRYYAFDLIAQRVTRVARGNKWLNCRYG
T7 sequence (P39900 whole entry): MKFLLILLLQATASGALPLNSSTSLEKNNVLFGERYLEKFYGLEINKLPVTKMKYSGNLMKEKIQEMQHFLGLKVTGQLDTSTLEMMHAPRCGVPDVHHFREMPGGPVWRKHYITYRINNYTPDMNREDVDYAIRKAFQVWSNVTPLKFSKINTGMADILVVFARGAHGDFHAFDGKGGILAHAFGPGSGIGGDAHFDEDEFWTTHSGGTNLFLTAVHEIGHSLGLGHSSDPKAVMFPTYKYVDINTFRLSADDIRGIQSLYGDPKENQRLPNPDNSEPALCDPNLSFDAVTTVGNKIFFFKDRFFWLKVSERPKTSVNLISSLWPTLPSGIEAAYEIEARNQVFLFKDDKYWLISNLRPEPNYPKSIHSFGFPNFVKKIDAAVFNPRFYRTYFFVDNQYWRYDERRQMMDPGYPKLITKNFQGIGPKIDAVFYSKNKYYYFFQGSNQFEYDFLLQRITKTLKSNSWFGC
T3 sequence (P08254 whole entry): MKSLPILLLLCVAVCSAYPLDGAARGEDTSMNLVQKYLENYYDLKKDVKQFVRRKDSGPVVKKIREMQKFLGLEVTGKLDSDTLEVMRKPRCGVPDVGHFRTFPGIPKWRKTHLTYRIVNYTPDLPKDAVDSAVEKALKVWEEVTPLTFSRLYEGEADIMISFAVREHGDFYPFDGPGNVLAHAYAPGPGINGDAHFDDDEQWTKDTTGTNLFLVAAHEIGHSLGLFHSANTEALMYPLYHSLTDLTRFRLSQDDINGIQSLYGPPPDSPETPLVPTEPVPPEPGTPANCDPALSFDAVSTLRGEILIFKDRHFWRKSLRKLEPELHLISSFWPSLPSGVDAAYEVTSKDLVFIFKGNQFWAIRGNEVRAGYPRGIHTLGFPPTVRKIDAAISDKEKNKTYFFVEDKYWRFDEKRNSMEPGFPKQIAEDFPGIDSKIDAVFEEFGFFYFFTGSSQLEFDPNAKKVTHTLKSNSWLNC
T4 sequence (P08253 whole entry): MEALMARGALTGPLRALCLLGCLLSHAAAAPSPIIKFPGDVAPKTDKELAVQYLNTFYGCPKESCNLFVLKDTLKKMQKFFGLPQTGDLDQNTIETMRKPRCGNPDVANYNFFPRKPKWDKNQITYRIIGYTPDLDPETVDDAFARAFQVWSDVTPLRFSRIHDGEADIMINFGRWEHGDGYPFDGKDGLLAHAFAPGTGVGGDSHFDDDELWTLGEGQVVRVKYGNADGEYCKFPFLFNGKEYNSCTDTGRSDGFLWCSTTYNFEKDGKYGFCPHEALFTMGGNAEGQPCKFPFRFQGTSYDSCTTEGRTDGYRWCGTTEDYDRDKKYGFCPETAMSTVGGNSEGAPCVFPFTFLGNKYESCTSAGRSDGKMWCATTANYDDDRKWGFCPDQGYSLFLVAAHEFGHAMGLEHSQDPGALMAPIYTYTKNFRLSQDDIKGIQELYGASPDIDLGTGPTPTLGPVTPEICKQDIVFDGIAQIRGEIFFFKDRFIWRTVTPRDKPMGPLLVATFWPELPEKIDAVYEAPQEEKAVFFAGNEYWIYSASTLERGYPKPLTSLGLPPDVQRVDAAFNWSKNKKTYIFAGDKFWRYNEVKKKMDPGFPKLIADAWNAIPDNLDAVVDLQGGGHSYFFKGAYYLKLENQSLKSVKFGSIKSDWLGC
T1 sequence (P14780 whole entry): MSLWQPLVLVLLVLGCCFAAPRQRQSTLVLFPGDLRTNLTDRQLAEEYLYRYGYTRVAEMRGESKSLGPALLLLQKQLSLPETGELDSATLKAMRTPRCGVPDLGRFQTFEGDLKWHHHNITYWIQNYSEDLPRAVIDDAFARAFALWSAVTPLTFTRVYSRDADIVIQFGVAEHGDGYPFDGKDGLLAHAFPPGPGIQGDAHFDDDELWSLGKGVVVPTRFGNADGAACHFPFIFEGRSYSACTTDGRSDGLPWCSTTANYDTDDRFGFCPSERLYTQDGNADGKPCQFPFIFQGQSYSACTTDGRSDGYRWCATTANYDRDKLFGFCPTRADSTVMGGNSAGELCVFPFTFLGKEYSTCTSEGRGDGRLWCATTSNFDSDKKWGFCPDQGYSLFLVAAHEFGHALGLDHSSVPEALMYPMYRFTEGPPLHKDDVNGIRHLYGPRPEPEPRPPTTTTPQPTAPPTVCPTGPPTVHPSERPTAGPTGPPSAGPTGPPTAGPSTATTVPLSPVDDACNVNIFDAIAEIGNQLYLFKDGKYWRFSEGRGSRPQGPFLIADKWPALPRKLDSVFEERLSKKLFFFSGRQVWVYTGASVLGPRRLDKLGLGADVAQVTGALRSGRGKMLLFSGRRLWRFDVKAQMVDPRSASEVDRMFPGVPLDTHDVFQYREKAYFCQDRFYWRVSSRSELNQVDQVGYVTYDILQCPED
T8 sequence (P09238 whole entry): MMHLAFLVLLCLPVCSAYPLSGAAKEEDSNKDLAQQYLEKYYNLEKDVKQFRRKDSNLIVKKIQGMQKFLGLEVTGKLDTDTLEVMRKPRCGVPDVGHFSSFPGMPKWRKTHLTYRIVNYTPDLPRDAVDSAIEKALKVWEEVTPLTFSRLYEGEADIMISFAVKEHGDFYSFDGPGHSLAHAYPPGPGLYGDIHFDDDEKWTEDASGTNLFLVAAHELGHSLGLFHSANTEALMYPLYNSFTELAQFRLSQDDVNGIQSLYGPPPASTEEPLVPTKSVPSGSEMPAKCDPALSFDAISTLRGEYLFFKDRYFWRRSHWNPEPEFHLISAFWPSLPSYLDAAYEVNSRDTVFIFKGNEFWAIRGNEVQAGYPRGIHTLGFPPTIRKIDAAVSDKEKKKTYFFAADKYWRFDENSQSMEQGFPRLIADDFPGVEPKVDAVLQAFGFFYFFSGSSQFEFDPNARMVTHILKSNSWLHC

Compound: O=S(=O)(CC1CS1)c1ccc(Oc2ccccc2)cc1 (centres undefined)
inhibition in vivo at 25 mg/kg [1]: 14%

Compound: NC(=O)[C@@H](CCC(=O)O)NC(=O)[C@@H](CCC(=O)O)NC(=O)[C@@H](Cc1cc(-c2ccc(-c3cccc(Cl)c3)cc2)no1)CP(=O)(O)c1ccc(Br)cc1
Ki [2]: 1.27 µM
Ki [3]: 0.14 µM
Ki (Stromelysin-1 [4]): 0.04 µM
Ki [5]: 0.192 µM
Ki (Interstitial collagenase [6]): 67 µM
Ki (Neutrophil collagenase [7]): 0.271 µM
Ki [8]: 0.00019 µM
Ki (Stromelysin-2 [9]): 18.4 µM
Ki (Collagenase 3 [10]): 0.049 µM
Ki (Matrilysin [11]): 0.626 µM

Compound: NC1CCCCC1NC(=O)P(=O)(O)O (centres undefined)
IC50 (Stromelysin-1 [12]): > 0.1 µM
IC50 [13]: 0.004 µM
Activity (Mus musculus [14]): 60%
half-life [15]: 2.1 h
IC50 (Neutrophil collagenase [16]): > 0.1 µM
IC50 [17]: > 0.1 µM
inhibition at 100 µM (B16-F10 [18]): 90%
half-life [19]: 1.8 h
IC50 (Collagenase 3 [20]): > 0.1 µM
IC50 [21]: 0.02 µM
Activity (Mus musculus [22]): 90%
Activity (B16-F10 [23]): 50%
half-life [24]: 0.313 h
IC50 [25]: > 0.1 µM
IC50 (Interstitial collagenase [26]): > 0.1 µM

Compound: O=C(NCCCCCCNS(=O)(=O)c1ccc(Oc2ccccc2)cc1)P(=O)(O)O
IC50 [13]: 0.004 µM
IC50 [17]: 0.02 µM
half-life [27]: 5.8 h
AUC [28]: 50500 ng·h/mL
IC50 (Collagenase 3 [20]): > 0.1 µM
AUC [29]: 3300 ng·h/mL
IC50 [21]: > 0.1 µM
CL/F [30]: 7.1 mL/min/kg
half-life [31]: 6.6 h
IC50 [25]: > 0.1 µM

IC50 [32]: 0.0017 µM
IC50 (Stromelysin-2 [33]): 0.0445 µM
IC50 [34]: 0.0439 µM
IC50 [35]: 0.286 µM
IC50 (Neutrophil collagenase [36]): 0.202 µM
solubility [37]: 996 µg/mL (≈ 2110 µM)
IC50 [38]: 0.0048 µM
IC50 (Collagenase 3 [39]): 0.0032 µM
IC50 (Matrilysin [40]): 0.825 µM
IC50 (Stromelysin-1 [41]): 0.0505 µM
IC50 (Interstitial collagenase [42]): > 1 µM
Compound: CN(C)c1ccc(-c2cn(-c3ccc(S(=O)(=O)C4(C(=O)NO)CCOCC4)cc3)nn2)cc1
inhibition (INH) (HT-1080): 37%

IC50 [43]: 0.02 µM
Compound: CC(C)CC(C(=O)NC(c1noc(Sc2ccccc2)n1)C(C)(C)C)C(O)C(=O)NO (centres undefined)
